# Results taken from ChEMBL document CHEMBL1201862, “PubChem BioAssay data set” (2004).
#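 Step 1: Grow cells in 96-well plates. Step 2: Expose to compound for 48 hours at 5 concentrations. Step 3: Interpolate endpoints linearly; if unreached, use highest concentration. The concentration for 50% growth inhibition is given as GI50.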 Activity calls are given as the source filed them. No stated cut-off is given here; in the data, active = GI50 up to about 1.1 µM and inactive = higher.
# Key:
# Test in all cases: inhibition of tumour cell growth, NCI panel, 48 h
# IGROV-1 = system: IGROV-1
# SK-MEL-28 = system: SK-MEL-28
# OVCAR-8 = system: OVCAR-8
# M14 = system: M14
# A549 = system: A549
# HOP-62 = system: HOP-62
# UACC-257 = system: UACC-257
# EKVX = system: EKVX
# 786-0 = system: 786-0
# SF-295 = system: SF-295
# NCI-H226 = system: NCI-H226
# UACC-62 = system: UACC-62
# UO-31 = system: UO-31
# A498 = system: A498
# SNB-19 = system: SNB-19
# MDA-N = system: MDA-N
# T47D = system: T47D
# NCI/ADR-RES = system: NCI/ADR-RES
# Hs-578T = system: Hs-578T
SMILES,GI50 (IGROV-1),GI50 (SK-MEL-28),GI50 (OVCAR-8),GI50 (M14),GI50 (A549),GI50 (HOP-62),GI50 (UACC-257),GI50 (EKVX),GI50 (786-0),GI50 (SF-295),GI50 (NCI-H226),GI50 (UACC-62),GI50 (UO-31),GI50 (A498),GI50 (SNB-19),GI50 (MDA-N),GI50 (T47D),GI50 (NCI/ADR-RES),GI50 (Hs-578T)
NNC(=S)N/N=C(\c1nc2ccc(Cl)cc2nc1O)C(O)c1cccc([N+](=O)[O-])c1 (stereo not drawn),> 100 µM (inactive),> 49 µM (inactive),> 100 µM (inactive),> 53.5 µM (inactive),> 100 µM (inactive),> 38.9 µM (inactive),> 100 µM (inactive),> 100 µM (inactive),> 43 µM (inactive),> 63.7 µM (inactive),> 100 µM (inactive),> 100 µM (inactive),> 100 µM (inactive),> 100 µM (inactive),> 100 µM (inactive),–,–,–,–
O=C(c1cscc1CCc1ccccc1)c1cscc1CCc1ccccc1,31.6 µM (inactive),> 100 µM (inactive),> 100 µM (inactive),> 100 µM (inactive),> 100 µM (inactive),> 100 µM (inactive),> 100 µM (inactive),> 100 µM (inactive),> 100 µM (inactive),> 100 µM (inactive),> 100 µM (inactive),> 100 µM (inactive),> 100 µM (inactive),> 100 µM (inactive),> 100 µM (inactive),> 100 µM (inactive),11.6 µM (inactive),> 100 µM (inactive),–
CN(C)C(=S)/N=c1\ss/c(=N\C(=S)N(C)C)n1-c1ccc(Cl)cc1,> 100 µM (inactive),> 100 µM (inactive),> 100 µM (inactive),> 100 µM (inactive),> 100 µM (inactive),> 100 µM (inactive),> 100 µM (inactive),> 100 µM (inactive),> 100 µM (inactive),> 100 µM (inactive),> 100 µM (inactive),> 100 µM (inactive),> 100 µM (inactive),> 100 µM (inactive),> 100 µM (inactive),–,–,–,–
CCOC(=O)COc1cc(-c2ccccc2)nc2cc(F)ccc12,> 100 µM (inactive),> 100 µM (inactive),> 100 µM (inactive),> 100 µM (inactive),> 100 µM (inactive),> 100 µM (inactive),> 100 µM (inactive),> 100 µM (inactive),> 100 µM (inactive),> 100 µM (inactive),> 100 µM (inactive),> 100 µM (inactive),–,> 100 µM (inactive),–,> 100 µM (inactive),> 100 µM (inactive),> 100 µM (inactive),–
C/C=C(/C)c1cnc(CC(C)C)c(=O)[nH]1,> 100 µM (inactive),> 100 µM (inactive),> 100 µM (inactive),–,> 100 µM (inactive),> 100 µM (inactive),> 100 µM (inactive),> 100 µM (inactive),> 100 µM (inactive),> 100 µM (inactive),–,> 100 µM (inactive),> 100 µM (inactive),> 100 µM (inactive),> 100 µM (inactive),> 100 µM (inactive),> 100 µM (inactive),–,> 100 µM (inactive)
Clc1ccc(Cl)c(SCCCN2CCNCC2)c1,18.2 µM (inactive),10.4 µM (inactive),20.3 µM (inactive),17.3 µM (inactive),20.6 µM (inactive),18 µM (inactive),11.7 µM (inactive),16.9 µM (inactive),20.1 µM (inactive),17.8 µM (inactive),18.3 µM (inactive),2.61 µM (inactive),14.4 µM (inactive),13.7 µM (inactive),16.9 µM (inactive),–,23.9 µM (inactive),17.3 µM (inactive),16.1 µM (inactive)
COc1ccc(NC(C)=O)cc1C1CCC(=O)N1 (stereo not drawn),> 100 µM (inactive),> 100 µM (inactive),> 100 µM (inactive),> 100 µM (inactive),> 100 µM (inactive),> 100 µM (inactive),> 100 µM (inactive),> 100 µM (inactive),> 100 µM (inactive),> 100 µM (inactive),> 100 µM (inactive),> 100 µM (inactive),> 100 µM (inactive),> 100 µM (inactive),> 100 µM (inactive),–,> 100 µM (inactive),> 100 µM (inactive),> 100 µM (inactive)
COC(=O)[C@]1(C)CCC[C@@]2(C)C1CC[C@]13C=C(C(C)C)[C@H](CC21)CC3(Cl)C#N (stereo partly drawn),> 100 µM (inactive),36.1 µM (inactive),45.9 µM (inactive),38.4 µM (inactive),57.5 µM (inactive),36.3 µM (inactive),27.7 µM (inactive),31.5 µM (inactive),> 100 µM (inactive),41.4 µM (inactive),22.8 µM (inactive),37.7 µM (inactive),64.3 µM (inactive),> 100 µM (inactive),> 100 µM (inactive),–,14.1 µM (inactive),57.7 µM (inactive),> 100 µM (inactive)
COC1=C(OC)C(=O)C(Cc2c(Cl)nc3sccn23)=C(C)C1=O,15.7 µM (inactive),12 µM (inactive),13.5 µM (inactive),11.7 µM (inactive),11.6 µM (inactive),16.1 µM (inactive),3.32 µM (inactive),7.11 µM (inactive),16.7 µM (inactive),12.4 µM (inactive),–,5.2 µM (inactive),10.6 µM (inactive),12.8 µM (inactive),13.5 µM (inactive),–,2.76 µM (inactive),5.89 µM (inactive),11.4 µM (inactive)
O=S(=O)(c1ccccc1)C1(CCC2OCCO2)C=CC2(CC1)OCCO2 (stereo not drawn),> 100 µM (inactive),> 100 µM (inactive),> 100 µM (inactive),> 100 µM (inactive),> 100 µM (inactive),> 100 µM (inactive),> 100 µM (inactive),> 100 µM (inactive),> 100 µM (inactive),> 100 µM (inactive),> 100 µM (inactive),> 100 µM (inactive),> 100 µM (inactive),> 100 µM (inactive),> 100 µM (inactive),> 100 µM (inactive),> 100 µM (inactive),> 100 µM (inactive),–
Cc1c(Cl)cccc1/N=N/C(=O)NNc1cccc(Cl)c1C,6.37 µM (inactive),16.6 µM (inactive),13.5 µM (inactive),19.2 µM (inactive),16.9 µM (inactive),12.8 µM (inactive),23.1 µM (inactive),–,23.1 µM (inactive),–,15.8 µM (inactive),11.9 µM (inactive),12.5 µM (inactive),14.4 µM (inactive),17.9 µM (inactive),17.2 µM (inactive),10.7 µM (inactive),–,–
O=C1/C(=C/c2ccc(O)cc2)NC(=S)N1CN1CCCCC1,98.9 µM (inactive),> 100 µM (inactive),53.5 µM (inactive),59.2 µM (inactive),> 100 µM (inactive),> 100 µM (inactive),–,> 100 µM (inactive),62.2 µM (inactive),89.7 µM (inactive),78.3 µM (inactive),42.9 µM (inactive),71.4 µM (inactive),96.6 µM (inactive),89.5 µM (inactive),> 100 µM (inactive),–,> 100 µM (inactive),85.5 µM (inactive)
CC(C)(C)C1CCC2c3c([nH]c4ccccc34)C3C(=O)N(c4ccc(C(=O)O)cc4)C(=O)C3C2C1 (stereo not drawn),18.5 µM (inactive),11.3 µM (inactive),12 µM (inactive),16.8 µM (inactive),12.2 µM (inactive),0.1 µM (active),13.9 µM (inactive),22 µM (inactive),15.7 µM (inactive),10.1 µM (inactive),20.9 µM (inactive),14.2 µM (inactive),16.8 µM (inactive),18.2 µM (inactive),16.8 µM (inactive),11.9 µM (inactive),–,16.7 µM (inactive),17.6 µM (inactive)
C[C@H]1[C@H](N2CCCC2)O[Si](C(C)(C)C)(C(C)(C)C)[C@@H]1C,> 100 µM (inactive),> 100 µM (inactive),> 100 µM (inactive),> 100 µM (inactive),> 100 µM (inactive),> 100 µM (inactive),> 100 µM (inactive),> 100 µM (inactive),> 100 µM (inactive),> 100 µM (inactive),> 100 µM (inactive),> 100 µM (inactive),> 100 µM (inactive),> 100 µM (inactive),0.964 µM (active),> 100 µM (inactive),> 100 µM (inactive),> 100 µM (inactive),–
C/C1=C\CC[C@@]2(C)O[C@@H]2[C@H]2OC(=O)C(C)C2C[C@H]1O (stereo partly drawn),> 100 µM (inactive),> 100 µM (inactive),> 100 µM (inactive),> 100 µM (inactive),> 100 µM (inactive),–,> 100 µM (inactive),> 100 µM (inactive),> 100 µM (inactive),> 100 µM (inactive),–,> 100 µM (inactive),> 100 µM (inactive),–,> 100 µM (inactive),–,–,> 100 µM (inactive),10.3 µM (inactive)
C=CN(C=C)C(=O)Cn1cc(-c2ccccc2)nn1,> 100 µM (inactive),> 100 µM (inactive),> 100 µM (inactive),> 100 µM (inactive),> 100 µM (inactive),> 100 µM (inactive),> 100 µM (inactive),> 100 µM (inactive),> 100 µM (inactive),> 100 µM (inactive),–,–,–,–,> 100 µM (inactive),–,–,> 100 µM (inactive),–
